The values that follow come from patent US6916906B1, “Polypeptides implicated in the expression of resistance to glycopeptides, in particular in gram-positive bacteria, nucleotide sequence coding for these polypeptides and use for diagnosis” (priority 1990, dated 2005).

In test [1] the test system is strain with a high level of resistance, in particular Gram-positive cocci. Nature of the test: MIC towards strains with a high level of resistance. Type of test: cell-based.
For test [2], the system named is strains with low-level resistance. In words: MIC towards strains with low-level resistance. Type of test: cell-based.
The next test deals with E. faecalis JH2-2. Nature of the test: MIC after inactivation of vanS by insertion in plasmid pAT80. The settings on record: inactivation of vanS in pAT80, compared with pAT80. Type of test: cell-based, Enterococcus faecalis. The text has this:
The restriction fragments of pIP816 (Tra^−, Mob^+, Vm^r) were cloned in derivatives of the vector pAT29 which constitutes a shuttle vector between the Gram-positive and Gram-negative bacteria (oriR pAMβ1, oriR pUC, oriT RK2, spc, lacZ) (Trieu-Cuot et al., 1990, Nucleic Acids Res. 18:4296). This vector was constructed by the inventors and used to transform the strain E. coli JM103 ((lac-proAB), supE, thi, strA, sbcB15, endA, hspR4, F traD36, proAB, LacI^q, lacZ M15) (Messing et al., 1983, Methods Ezymol. 101:20-78). The plasmid DNA was prepared by an alkaline lysis protocol on a small scale (Sambrook et al., 1982, Molecular cloning, a laboratory manual. Cold Spring Harbor Laboratory, Cold Spring Harbor N.Y.) and introduced by electroporation (Cruz-Rodz A. L. et al., 1990, Mol. Gen. Genet. 224: 152-154) in E. faecalis JH2-2 (Fus^R, Rif^R) (Jacob A. E. et al., 1974, J. Bacteriol. 117: 360-372), by using a Gene Pulser apparatus (Bio-Rad Laboratories, Richmond, Calif.). The restriction profiles of the purified plasmids from E. faecalis and E. coli were compared in order to detect possible rearrangements of DNA.
The cultures were grown in brain-heart broth (BHI—Brain Heart Infusion Broth) or on agar at 37° C. […]

A further test concerns E. gallinarum BM4174. Nature of the test: Minimal inhibitory concentration of vancomycin for BM4174. The settings on record: Enterococcus gallinarum, read-out: minimal inhibitory concentration. It counts as cell-based. The protocol: (§1) The cultures were grown in brain-heart broth (BHI—Brain Heart Infusion Broth) or on agar at 37° C. The method of Steers et al (Antibiot. Chemother. Basel. 9: 307-311) was used to determine the minimal inhibitory concentrations (MICs) of the antibiotics on a Mueller-Hinton gelose agar medium.
(§2) In order to evaluate the contribution of vanC to resistance to vancomycin in E. gallinarum BM4174, the vanC gene was inactivated by insertion. […] The resulting pAT217 plasmid was introduced into BM4174 by electroporation (Cruz-Rodz et al., 1990, Mol. Gen. Genet. 224:152-154) and the clones supposed to result from a homologous recombination leading to the integration of pAT217 into vanC were selected on erythromycin. The clone BM4175 was compared with BM4174 by Southern hybridization using the probe C and aphA-3 specific for pAT114. The two probes hybridized with the EcoRI fragment of 8.6 kb from BM4175.

A further test relates to BM4175. Nature of the test: Minimal inhibitory concentration of vancomycin for BM4175 (vanC inactivated by insertion). It counts as cell-based. The settings on record: Enterococcus gallinarum; BM4175, pAT217 integrated into vanC. The method, then:
as §1, §2

Where only a bound is given, the exact number is not on record here.

As to teicoplanin, the “minimal inhibitory concentrations (MIC)” value in test [1] (strains with a high level of resistance (definition)) is more than 8 µg/mL. For the same compound, in test [2], the “sensitivity of the strains” value is reported as “apparently sensitive”.
Consider `O=C(N[C@H](CO)[C@H](O)c1ccc([N+](=O)[O-])cc1)C(Cl)Cl` [chloramphenicol], for which the “change of minimal inhibitory concentration (MIC)” value in the test with E. faecalis JH2-2 was “two-fold reduction”.
Regarding `CN[C@H](CC(C)C)C(=O)N[C@H]1C(=O)N[C@@H](CC(N)=O)C(=O)N[C@H]2C(=O)N[C@H]3C(=O)N[C@H](C(=O)N[C@H](C(=O)O)c4cc(O)cc(O)c4-c4cc3ccc4O)[C@H](O)c3ccc(c(Cl)c3)Oc3cc2cc(c3O[C@@H]2O[C@H](CO)[C@@H](O)[C@H](O)[C@H]2O[C@H]2C[C@](C)(N)[C@H](O)[C@H](C)O2)Oc2ccc(cc2Cl)[C@H]1O` [vancomycin], the results for the MIC (in the test with E. gallinarum BM4174; with BM4175; in test [1] (read-out: minimal inhibitory concentrations (MIC))) were 16 µg/mL, 2 µg/mL and more than 32 µg/mL, respectively. Besides, the “change of minimal inhibitory concentration (MIC)” value with E. faecalis JH2-2 was “remains unchanged”.
